In patent publication US20170216244A1, “METHODS FOR TREATING DIABETIC NEPHROPATHY” (YALE UNIVERSITY, priority 2014, published 2017):
Several values for one entry are separate records, joined by “and”; a condition that tells them apart may be missing. Equal values may be shown once. Entries after “also recorded” stand apart in the source; their conditions may differ.

Columns and labels:
podocytes = experiment: Podocyte MICAL1 knockdown morphology assay; type: cell-based; conditions: mouse recombinant Sema3a 100 ng/ml, 6 hours
Method: (§1) Podocyte MICAL-1 knockdown was induced using a mouse MICAL-1 siRNA oligonucleotide ([…], SEQ ID NO: 1) (Zhou et al., Mol Cell Biol 2011;31(17):3603-3615) (Dharmacon). Briefly, podocytes were transfected with 200 pmol MICAL-1 siRNA or scrambled siRNA using Oligofectamine (Invitrogen) and incubated for 72 hours. MICAL1 knockdown was confirmed by immunoblot. Podocytes with or without MICAL1 knockdown were exposed to mouse recombinant Sema3a (100 ng/ml) for 6 hours. Podocytes were fixed, permeabilized, stained with rhodamine-phalloidin, and their morphology was analyzed as described above.

MICAL1 = experiment: Podocyte MICAL1 knockdown by siRNA, immunoblot; type: cell-based, mouse; conditions: 200 pmol siRNA, 72 hours, cultured podocytes, densitometry
Method: Equal amount of protein from ≧4 kidney lysates/experimental condition were pooled and resolved by SDS-PAGE, immunoblotting was performed using standard technique with the following primary antibodies: WT1, podocin, nephrin, laminin, Sema3a (sc-28867; Santa Cruz), β3-integrin (sc-14009; Santa Cruz), β1-integrin (AB1952; EMD-Millipore), neuropilin-1 (Kolodkin et al., Cell 1997;90:753-762; Takahashi et al., Cell 1999;99(1):59-69), MMP-2 (MAB13434; EMD-Millipore), MMP-9 (AB19016; EMD-Millipore), plexinA1 (sc-25639; Santa Cruz), VEGFR-2 (2479; Cell Signaling), MICAL1 (14818-1-AP; Proteintech); actin (A2066; Sigma) or tubulin (Sigma) were used as loading controls. Signals were detected with appropriate HRP-conjugated secondary antibodies, visualized by chemiluminescence and quantified using ImageJ.
as §1

[1] = purified fungal xanthofulvin, in vivo; cited from earlier work
Sema3a = target: T1, Sema3a (Homo sapiens, UniProt Q14563); conditions: fungal and synthetic xanthofulvin, in vitro; cited from earlier work
T1 sequence (Q14563 21-771): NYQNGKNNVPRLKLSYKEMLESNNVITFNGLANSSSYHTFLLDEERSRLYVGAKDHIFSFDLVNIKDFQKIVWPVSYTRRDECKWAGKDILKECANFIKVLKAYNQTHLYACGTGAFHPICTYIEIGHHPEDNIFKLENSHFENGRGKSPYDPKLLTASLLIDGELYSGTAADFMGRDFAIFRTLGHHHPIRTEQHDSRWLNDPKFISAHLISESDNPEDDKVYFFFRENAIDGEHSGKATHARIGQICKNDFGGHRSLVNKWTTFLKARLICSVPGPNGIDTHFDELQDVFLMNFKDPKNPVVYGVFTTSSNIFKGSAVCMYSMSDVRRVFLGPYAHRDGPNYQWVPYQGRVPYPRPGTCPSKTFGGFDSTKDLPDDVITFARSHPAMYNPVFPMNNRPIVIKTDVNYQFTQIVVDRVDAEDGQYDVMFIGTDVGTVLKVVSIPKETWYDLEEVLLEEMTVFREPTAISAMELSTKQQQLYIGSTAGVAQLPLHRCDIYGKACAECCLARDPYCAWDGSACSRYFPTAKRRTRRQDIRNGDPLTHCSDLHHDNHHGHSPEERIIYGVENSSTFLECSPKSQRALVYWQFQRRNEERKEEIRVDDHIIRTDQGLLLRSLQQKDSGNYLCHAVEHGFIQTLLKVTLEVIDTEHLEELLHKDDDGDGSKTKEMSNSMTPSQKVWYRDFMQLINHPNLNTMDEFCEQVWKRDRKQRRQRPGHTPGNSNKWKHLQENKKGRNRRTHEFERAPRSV

[2] = tested on: Sema3a^+ gain-of-function diabetic mice; experiment: Sema3a inhibition study: xanthofulvin subcutaneous infusion in Sema3a^+ gain-of-function diabetic mice; type: in vivo, mouse
Method: Podocin-rtTA:tet-O-Sema3a mice, herein called Sema3a^+, generated previously (Reidy et al., Development 2009;136(23):3979-3989) were maintained in FVB genetic background for >10 generations. Diabetes was induced (low dose protocol, AMDCC.org) in 6-8 weeks old male Sema3a^+ mice by 5 daily i.p. streptozotocin (STZ) (50 mg/kg) . Diabetes (random blood glucose >300 mg/dl) was confirmed using glucose oxidase biosensor blood glucose meter (One-Touch-Ultra-2; LifeScan) one week after the last STZ injection. Diabetic Sema3a^+ (DM-Sema3a^+) (n=15) and non-diabetic Sema3a^+ (non-DM-Sema3a^+) (n=18) mice were fed doxycycline-containing diet (0.625mg/kg chow, Harlan-Teklad) or standard chow for 12-16 weeks. After 12-16 weeks of diabetes, 24 h urine was collected in metabolic cages, blood and kidneys were collected under anesthesia. For Sema3a inhibition studies, DM-Sema3a^+ mice were fed doxycycline-containing chow for 8 weeks, then Alzet osmotic pumps (Model 1004) containing xanthofulvin (0.5 mg/ml in PBS) (Ieda et al., Nat Med 2007;13(5):604-612) (n=4) or saline (n=2) were implanted subcutaneously, all mice were kept on doxycycline-containing chow for the following 4 weeks.
Urinary albumin was measured using mouse albumin ELISA (Bethyl Laboratories) and SDS-PAGE/Coomassie Blue staining as described (Reidy et al., Am J Pathol 2013;183(4):1156-1168). Plasma and 24h urine creatinine were measured by HPLC. Transmission electron microscopy (TEM) was performed using standard techniques. Glomerular area was measured using ImageJ-NIH (rsb.info.nih.gov/ij/) in 34±2.1 glomeruli/kidney from 4 mice/experimental condition. A renal pathologist (G.M.) examined PAS stained kidney specimens in blinded fashion and assigned a semiquantitative pathology score based on % area (0=none;1=1-25%;2=26-50%;3=51-75%;4=76-100%) with the following features: glomerular nodules, mesangiolysis, mesangial sclerosis and interstitial fibrosis. The percentage glomeruli/section containing mesangiolysis or nodules was calculated (Veron et al., J Am Soc Nephrol. 2014;25(8):1814-1824).

Sema3a^+ podocytes = experiment: Podocyte morphology assay (rhodamine-phalloidin staining, cell area morphometry); type: cell-based
Method: Sema3a^+ podocyte cell line was described previously (Reidy et al., Am J Pathol 2013;183(4):1156-1168). Sema3a^+ podocytes were exposed to RPMI 1640 medium+1%FBS, medium+0.1 μM xanthofulvin, medium+100 ng/ml rat recombinant Sema3a (Reidy et al., Development 2009;136(23):3979-3989) or medium+xanthofulvin+Sema3a for 16 h, fixed and stained with rhodamine-phalloidin. Images were acquired (Zeiss Axiovert); podocyte area (μm^2) was measured using Zeiss AxioVision software as described (Reidy et al., Am J Pathol 2013;183(4):1156-1168), n=71±4 cells/experimental condition from 3 independent experiments were measured.

[3] = constant subcutaneous infusion ~1.8 μg/d for 30 days

Row | Molecule | Sema3a-induced podocyte contraction and F-actin collapse after MICAL1 knockdown (podocytes) | decrease of MICAL1 expression (knockdown) (MICAL1) | functional recovery of injured spinal cord [1] | Sema3a-induced growth cone collapse (Sema3a) | GBM thickness (TEM morphometry) [2, 3] | body weight [2, 3] | creatinine clearance (renal insufficiency) [2, 3] | diabetic glomerulosclerosis phenotype by histology and TEM [2, 3] | foot process effacement / FP width (TEM morphometry) [2, 3] | plasma albumin (hypoalbuminemia) [2, 3] | side effect [2, 3] | albuminuria ([2]; constant subcutaneous infusion ~1.8 μg/d for 30 days (weeks 8-12 after diabetes onset)) | Sema3a-induced podocyte F-actin collapse, shape change and contraction (Sema3a^+ podocytes; 0.1 μM xanthofulvin, 100 ng/ml rat recombinant Sema3a, synthetic xanthofulvin) | deleterious effects in cultured podocytes (Sema3a^+ podocytes; cultured podocytes)
1 | siRNA: mouse MICAL-1 siRNA oligonucleotide (CAGGUGCCAUGACUAAGUAUU, SEQ ID NO: 1) (listed as RNA, chemistry not given here; listed as Mus musculus) | not susceptible to Sema3a-induced contraction; also recorded: prevents Sema3a-induced podocyte contraction and F-actin collapse | 73±2.6% and ~75% |  |  |  |  |  |  |  |  |  |  |  | 
2 | CC(=O)c1c(C)c(/C(O)=C2\COc3cc(O)c(O)c(C(=O)O)c3C2=O)cc2c(=O)c3c(C(=O)O)c(O)c(O)cc3oc12 [xanthofulvin] |  |  | promotes functional recovery of injured spinal cord | prevent Sema3a-induced growth cone collapse in vitro | significantly decreased GBM thickness; also recorded: quite normal GBM | stable body weight | abrogated renal insufficiency; also recorded: normalized | markedly attenuates the diabetic glomerulosclerosis phenotype; also recorded: abrogate the diabetic nodular glomerulosclerosis; also recorded: abrogated; also recorded: mild mesangial hypercellularity and extracellular matrix expansion | significantly decreased; also recorded: focal FPE | corrects hypoalbuminemia; also recorded: normalized | no apparent side effect | significantly decreases albuminuria; also recorded: decreased albuminuria; also recorded: improved albuminuria | prevented Sema3a-induced podocyte F-actin collapse, shape change and contraction; also recorded: abrogates Sema3a-induced podocyte contraction in vitro; also recorded: abrogates Sema3a-induced podocyte F-actin collapse in vitro; also recorded: abrogates Sema3a-induced podocyte F-actin collapse, shape change and contraction | no deleterious effects in cultured podocytes
